Test system: intestinal epithelial cells F-hiSIEC
Experiment: Permeation test of Lucifer yellow across intestinal epithelial cell sheet on cell culture insert
Format: in vitro ADME
Conditions: for Permeability coefficient (Papp) Average (mean): 110 μM Lucifer yellow/HBSS, 37° C., 1 hour
Experimental: One gas absorbent (oxygen scavenger) (Anaeropack: Mitsubishi Chemical Corporation) was installed in the upper tank of the cell culture device in FIG. 1, the upper tank portion was sealed, and the sealed upper tank portion was installed on the 6-well plate, which was the lower tank portion. In addition, intestinal epithelial cells F-hiSIEC (FUJIFILM Corporation) were seeded on a cell culture insert (Millipore) coated with Matrigel, and cultured for 9 days according to a manual using F-hiSIEC Culture Medium (FUJIFILM Corporation). 150 μL of F-hiSIEC Culture Medium (FUJIFILM Corporation) was added to an upper surface of the cell culture insert on which the cells on the 9th day of the culture had been seeded, and the cell culture insert was installed in the device from a lower side of the upper tank of the device, using the insertion tool shown in FIG. 5. While sandwiching the cell culture insert, 1 mL of a culture medium was added to a well plate of the lower tank, the upper tank portion of the device was installed in the well plate, and the entire device was placed in a CO2 incubator for culture for 72 hours. After the culture, a trans-epithelial electrical resistance (TEER) value of the intestinal epithelial cells was measured with an EVOM2 system. In addition, the permeation rate (Papp) of Lucifer yellow and the gene expression of various intestinal epithelial cell markers were compared with cells cultured under aerobic conditions in both the upper tank and the lower tank. The aerobic conditions in the upper tank and the lower tank mean cells cultured by installing a lid attached to the well plate without using the co-culture device. In the permeation test of Lucifer yellow, the upper and lower culture media in the insert containing the cells are substituted with HBSS and incubated at 37° C. for 1 hour. […] After 1 hour, the amount of substance which had passed through the lower part of the cell culture insert was quantified by a plate reader (Enspire, PerkinElmer Inc.), and the permeation rate and the permeability coefficient (Papp) were calculated.

Permeability coefficient (Papp) Average (mean) (F-hiSIEC cells cultured 72 hours in the cell culture device (upper tank anaerobic, lower tank aerobic)): 1.54 ×10⁻⁶ cm/s | Permeability coefficient (Papp) Average (mean) (F-hiSIEC cells cultured 72 hours under aerobic conditions in both upper and lower tank (no device)): 0.7 ×10⁻⁶ cm/s | Increase of Papp in anaerobic cultured cells as compared with aerobic cells (anaerobic vs aerobic cultured F-hiSIEC cells, 72 hours culture): approximately 2 times
Substance: Lucifer yellow
